This is an account of results in patent US9828344B2, “Inhibitors of the notch signaling pathway and secretion for use in medicine” (Leibniz-Institut für Altersforschung Fritz-Lipmann-Institut …, priority 2012, dated 2017).

Peptide text beside a SMILES is read from it. * marks the point of attachment. Cbz = O=C(OCc1ccccc1)*

For series [1], the system named is NotchΔE-EGFP. In words: cells. Type of series: cell-based. The note with it: for change of reporter localization quantified by automated microscopy: assay validation, monensin 6 h dose-dependent, MG132 1 μM 16 h; for activity in NotchΔE-EGFP cells (enuc/nuc ratios): SAR and prior-art comparison, FIG. 5a/5b. An excerpt: To identify novel regulatory factors involved in Notch trafficking/processing an image-based high content screen was set up. […] NotchΔE-EGFP is a direct substrate for γ-secretase at the PM, and under physiological conditions is proteolytically processed to NICD-EGFP that translocates into the nucleus (for scheme see FIG. 1b), resulting in a strong nuclear EGFP-staining in steady state^15 (FIG. 1d). […] Importantly, changes in subcellular localization of the reporter are amenable to quantitation by automated microscopy^15. Accordingly, reporter fluorescence was determined in the nucleus (nuc) and in a ring around the nucleus (enuc), and the ratio enuc/nuc was evaluated (schematized in FIG. 1c). Thereafter, the assay design was functionally validated. […] The assay also reliably detected trafficking defects in the secretory pathway. […] Taken together, the assay was validated for reliably detecting concentration and time dependent changes in trafficking and processing of the Notch reporter.
Cells were seeded in 96-well plates at a density of 5000 cells/well in 100 μl medium. The next day, 100 μl medium containing the respective test compounds was added. Cells were incubated for 16 h, fixed and processed for automated microscopy. For the putative gamma-secretase inhibitors the enuc intensity was divided by the DAPT control and for the trafficking inhibitors normalized percentage inhibition against DAPT/DMSO controls of log 2 transformed nuc/enuc ratios were calculated. Relative activity values were read into “R” (http://www.r-project.org/) and EC50 estimates were calculated using four-parameter log-logistic fit with the package “drc”^51.
Images were acquired on an ArrayScan VTi automated microscope (ThermoFisher) and numerical data were extracted with the Compartmental Analysis BioApplication of the bundled software suite. Compound screening raw data were collected at the FMP and data transformation was performed according to standard procedures (ref 17 and supp. Refs 6-7).

Series [2] has as its system NotchΔE-EGFP. Description: Fluorescence microscopy of reporter localization in HeLa NotchΔE-EGFP cells. It counts as cell-based. To be noted: 10 μM compound, 24 h. The procedure:
FIG. 10: Phenotypes of Notch inhibitors are fully reversible. HeLa NotchΔE-EGFP cells plated in LabTek coverglass were incubated for 18 h with 10 iM of indicated compounds, washed and incubated for indicated times in cell culture medium. Cells were imaged by live-microscopy. […] Scalebar, 10 im.
For a detailed analysis of subcelluar distribution of NotchΔE/NICD the resolution of the HCS images was not sufficient. Therefore, the reporter cell line was plated on coverslips and incubated with 10 μM of individual compounds from the final hit list. After 24 h the localization of NotchΔE-EGFP/NICD-EGFP was determined by fluorescence microscopy. […] (FIG. 8).
Immunofluorescence stainings were made using standard procedures^55. Imaging was performed on a Zeiss Axiovert200 or an Axio Imager, using 63× 1.4NA objectives and Zeiss Axiovision software. For live-imaging cells were plated on Lab-Tek chambered coverglass (Thermo-Fisher). Images were assembled and processed using Adobe Photoshop. For displaying weakly stained ER-tubules/sheets non-linear changes in gamma-settings were used.

The subject of another series is zebrafish embryos. Description: Zebrafish embryo Notch phenotype (somites, ngn1 qPCR and ISH). Type of series: in vivo, zebrafish Danio rerio. As for the experimental part:
Cells were incubated with DAPT or 10 μM of the indicated compounds (50 μM in case of FLI-15 and -20) and after 16 h a luciferase assay was performed. […] Changes in relative gene expression levels (fold change) relative to the expression levels in DMSO controls are represented as the mean+/−SD, asterisks indicate p<0.01. Each measurement was taken from two independent samples. Each reaction was measured in triplicate. Changes in the relative expression of ngn1 were standardized to the expression of the housekeeping gene ef1a at 20 hpf. c) ISH with riboprobes specific for ngn1 was performed on dechorionated stage 4 hpf zebrafish embryos. Anterior is to the left, dorsal to the top. Magnifications of the somite region (small box) are shown. Arrows indicate larger ngn1 clusters or stronger ngn1 staining. s, sensory neurons; i, intermediate neurons; m, motor neurons.
FIG. 11: Selected compounds affect somite formation and neurogenesis in vivo in zebrafish embryos. a) Lateral view of typical representative phenotypes induced by DAPT treatment, which were used as a reference to score the effect of compounds. […] Images were taken at 24 hpf. b) Pie chart showing the cumulative relative frequency of the phenotypes in a) at 24 hpf in embryos treated with 20, 50 and 100 iM of the indicated compounds. c) ISH with riboprobes specific for ngn1 was performed on dechorionated stage 4 hpf zebrafish embryos. Anterior is to the left, dorsal to the top. Magnifications of the developing head (box) are shown. Arrows indicate larger ngn1 clusters or stronger ngn1 staining. t, telencephalon; p, protectum; h, hindbrain; d, diencephalon; tg, tegmentum; vrc, ventral rostral cluster.
We wanted to test whether the results obtained with the NotchΔE-EGFP construct are relevant for endogenous Notch signaling. Therefore we made use of C2C12 cells, a well established model for muscle development that expresses endogenous Notch^21,22. After stimulating endogenous Notch signaling by transfecting the Notch ligand Delta, Notch activity was measured by a luciferase assay using a Notch reporter^15 in the presence or absence of compounds (FIG. 4a). […] Next, we tested whether selected compounds would affect Notch signaling in vivo. […] Compounds were added to dechorionated stage 4 hpf zebrafish embryos and the effects were analyzed after 24 h by morphological inspection of somite formation. Phenotypes were ranked to four categories, normal somites, mild somite defects, strong somite defects and developmental delay. […] As an additional parameter we decided to analyze Notch-dependent genes involved in neurogenesis. Primary neurogenesis in zebrafish involves the selection of neuroblasts (repressed by Notch) from proneural clusters (Notch expressing cells), a process regulated in a negative manner by Notch-dependent lateral inhibition^25. Accordingly, neuroblast cells that express the neuronal specification factor neurogenin (ngn1^26) became more abundant when Notch signaling was impaired, for instance upon DAPT treatment^23,27. qPCR analyses on mRNA extracted from equivalent sets of embryos was performed for ngn1 expression (FIG. 4b). […] To confirm the data obtained by qPCR, whole-mount in-situ hybridizations (ISH) using an ngn1 specific riboprobe were performed (FIG. 4c, FIG. 11c). […] Taken together, FLI-06, -14, -15, -19 and -20 inhibited endogenous Notch signaling in vitro and in vivo, corroborating the NotchΔE-EGFP reporter data.
Embryos were obtained from natural spawning of wild-type TüAB strain adults, raised and staged according to supp. Ref 14. DAPT and compounds were applied at 50 iM in E3 embryo medium to zebrafish embryos with chorions torn but not completely removed from sphere stage until the stage of analysis, according to ref 23. Control embryos were mock treated with the same concentration of DMSO dissolved in E3 embryo medium. […]
In general terms: In qPCR the cycle at which signal appears reflects the starting amount.

For another series, the system named is γ-secretase. Description: In vitro γ-secretase assay with isolated membranes. It counts as biochemical. The note with it: 37° C. As for the experimental part: FIG. 3: Effect of compounds on NotchΔE-EGFP, APP and Klotho trafficking and processing. a) HEK293 stably expressing APPswe or Klotho (KI) were incubated with DAPT or compounds (10 μM) for 16 h. Media were collected, cells lysed and both assayed by Western blotting using indicated antibodies. m, mature; im, immature; s, shedded ectodomain; CTF, C-terminal fragment. b) Membranes from HeLa-NotchΔE-EGFP and APPswe cells were isolated and subjected to a γ-secretase in vitro assay in the presence of DAPT or compounds as indicated. NICD and AICD were detected by Western Blotting using antibodies against the C-terminus of APP (top) or antibodies specific for NICD (bottom). c) Quantitation from 5 independent experiments.
To test whether FLI-06 affected other membrane proteins, Klotho, a type I protein processed like APP and Notch^20, was analyzed. […] To analyze γ-secretase activity, in vitro assays using isolated membranes were performed (FIG. 3b, c). Production of NICD-EGFP and AICD (APP intracellular domain) were assayed. Both were produced in vitro at 37° C. but not at 4° C., and their production was inhibited by DAPT.
For assaying AICD formation, membranes of HEK293 cells stably expressing APP with the Swedish mutation were isolated and incubated for 4 h at 37° C. according to Sastre et al.^52. For assaying NICD formation, membranes from HeLa NotchΔE-EGFP cells were mixed with membranes from HeLa NotchΔE-EGFP cells that were pre-treated with 10 μM DAPT overnight to enrich substrate. After incubation samples were loaded onto either 8% SDS-PA gels (NICD) or 10-20% Tris-Tricine gels (AICD), blotted and probed with cleaved-Notch antibody or antibody 6687 against APP C-terminus^53. Chemoluminescence was quantified on a LAS-4000 (Fuji) with MultiGauge software.

On to `CC[C@@]1([C@@H]2O[C@@H]([C@H]3O[C@@](O)(CO)[C@H](C)C[C@@H]3C)C[C@@H]2C)CC[C@H]([C@]2(C)CC[C@]3(C[C@H](O)[C@@H](C)[C@@H]([C@@H](C)[C@@H](OC)[C@H](C)C(=O)O)O3)O2)O1` [monensin], for which the “change of reporter localization quantified by automated microscopy” value with NotchΔE-EGFP [1] is “blocking the anterograde transport of NotchΔE-EGFP”.
On to `C[C@H](NC(=O)Cc1cc(F)cc(F)c1)C(=O)N[C@H](C(=O)OC(C)(C)C)c1ccccc1` [DAPT, reference compound], for which the “localization of NotchΔE-EGFP/NICD-EGFP” value with NotchΔE-EGFP [2] was “accumulated at the PM”. In the series on zebrafish embryos (50 μM, compared to DMSO controls), the “ngn1 positive cell clusters in the developing brain (ISH)” value was “differentially expanded”. Besides, the “ngn1 positive cell clusters along the spinal cord (ISH)” value with zebrafish embryos (50 μM, compared to DMSO-treated control embryos) was “expanded and denser clusters of ngn1 positive cells”. In addition, the “ngn1 mRNA levels (qPCR)” value in the series on zebrafish embryos (50 μM, relative to DMSO controls) is reported as “significantly increased”. The somite/morphological phenotype result in the series on zebrafish embryos (embryos treated from 4-6 hpf, scored at 24 hpf) was “either defective somitogenesis (mild), head and trunk malformation (strong) or developmental delay (delayed)”. In addition, in the series with γ-secretase, the “NICD-EGFP and AICD production in isolated membranes” value is given as “inhibited”. Besides, the “cell viability by visual inspection” value with NotchΔE-EGFP [1] is on record as “viable at all times”. Besides, in the series with NotchΔE-EGFP [1] (1 μM DAPT), the “t1/2 of decrease of NICD-EGFP fluorescence in the nucleus” value was determined as 4.7 ± 1.0 h and the “t9/10 of decrease of NICD-EGFP fluorescence in the nucleus” value turned out to be 8.6 ± 2.9 h.
For the compound `CC1=C(C(=O)OC2CCCCC2)C(c2ccc([N+](=O)[O-])cc2)C2=C(CC(C)(C)C/C2=N\OCC(=O)O)N1` (centres unmarked) [compound 6, E-2-(((3′-Cyclohexyloxycarbonyl-4″-nitrophenyl-2′,7′,7′-trimethyl-1′,4′,5′,6′,7′,8′-hexahydroquinoline-5′-ylidene)amino)oxy)acetic acid], the “activity in NotchΔE-EGFP cells (enuc/nuc ratios)” value in the series on NotchΔE-EGFP [1] is “entirely inactive”.
Turning to `COCCOC(=O)C1=C(C)NC2=C(C(=O)CC(c3ccc(Cl)cc3)C2)C1c1ccccc1F` (centres unmarked) [C3], the “activity in NotchΔE-EGFP cells (enuc/nuc ratios)” value in the series on NotchΔE-EGFP [1] is given as “no activity”.
For `CC(C)C[C@@H](C=O)NC(=O)[C@H](CC(C)C)NC(=O)[C@H](CC(C)C)NC(=O)OCc1ccccc1` [MG132] (Cbz-Leu-Leu-Leu-aldehyde), in the series with NotchΔE-EGFP [1], the “change of reporter localization quantified by automated microscopy” value is “accumulation of NICD in the nucleus”.
Take `COC(=O)C1=C(C)NC2=C(C(=O)CC(c3ccc(Cl)cc3)C2)C1c1ccccc1F` (centres unmarked) [C5]: the “activity in NotchΔE-EGFP cells (enuc/nuc ratios)” value in the series with NotchΔE-EGFP [1] is on record as “no activity”.
On to `CCCCCOC(=O)C1=C(C)NC2=C(C(=O)CC(C)(C)C2)C1c1ccc([N+](=O)[O-])cc1` (centres unmarked) [ST216093], for which the “activity in NotchΔE-EGFP cells (enuc/nuc ratios)” value in the series on NotchΔE-EGFP [1] is on record as “show the desired activity”.
On to `COCCOC(=O)C1=C(C)NC2=C(C(=O)CC(c3ccccc3)C2)C1c1ccccc1F` (centres unmarked) [C4], for which, in the series on NotchΔE-EGFP [1], the “activity in NotchΔE-EGFP cells (enuc/nuc ratios)” value was “no activity”.
Still for that read-out and setting: the value for `COCCOC(=O)C1=C(C)NC2=C(C(=O)CC(c3ccccc3OC)C2)C1c1cccc(O)c1` (centres unmarked) [HPI-1] was “no activity”.
